Results reported in PMC12396291, “DNA-encoded library screening uncovers potent DNMT2 inhibitors targeting a cryptic allosteric binding site” (iScience, 2025).
Each block holds one molecule with its values, some of them ahead of it.

Assays:
DNMT2 [1] = molecular target: T1, DNMT2 (Homo sapiens, UniProt O14717); test: MST displacement assay with fluorescent FTAD probe; assay type: binding; design: Fnorm (MST screening): unit not given here; conditions: for Fnorm (% displ.): FTAD displacement / Fnorm (MST screening): ligand 100 μM, FTAD probe
T1 construct: Recombinant human DNMT2 (full-length); His-tag; made in house; host or cells: E. coli
T1 sequence (O14717 1-391): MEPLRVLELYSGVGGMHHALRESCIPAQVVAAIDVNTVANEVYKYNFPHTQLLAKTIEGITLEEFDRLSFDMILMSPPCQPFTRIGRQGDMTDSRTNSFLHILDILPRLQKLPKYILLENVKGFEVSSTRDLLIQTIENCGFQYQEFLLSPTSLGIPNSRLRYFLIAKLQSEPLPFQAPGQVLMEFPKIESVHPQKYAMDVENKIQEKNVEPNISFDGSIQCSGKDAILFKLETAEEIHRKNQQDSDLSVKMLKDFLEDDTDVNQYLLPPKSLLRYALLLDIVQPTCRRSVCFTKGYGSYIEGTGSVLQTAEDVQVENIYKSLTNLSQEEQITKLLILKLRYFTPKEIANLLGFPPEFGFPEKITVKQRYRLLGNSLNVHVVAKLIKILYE
Experimental: Screening for ligand binding and evaluation of dose-response affinity profiles was performed via microscale thermophoresis (MST) as described previously.[42] The measurements were conducted with a Nanotemper Technologies Monolith NT.115 device. All samples were measured in Monolith standard capillaries at 25 °C. The acquisition mode was set to “Nano-Blue” with an excitation power of 30% and a medium MST power, while the system was controlled using the software MO.Control (version 1.6.1) and for evaluation MO.Affinity Analysis (version 2.3) was used. The samples contained 2 μM DNMT2, 100 nM FTAD (5-FAM-triazolyl-adenosyl-Dab) probe, and 1.3% DMSO in MST buffer (50 mM HEPES, 150 mM NaCl, 1 mM dithiothreitol (DTT), 0.1% PEG-8000, 0.05% polysorbate-20, pH 7.4).[42] All compounds were employed at a final concentration of 100 μM for the initial ligand screening.

DNMT2 [2] = molecular target: T1, DNMT2; test: Isothermal titration calorimetry (ITC), direct titration; assay type: binding; conditions: direct titration at 25 °C; n.b. = no enthalpy signal observable
Experimental: The DNMT2 protein was purified via size exclusion chromatography eluting in isothermal titration calorimetry (ITC) buffer (50 mM sodium phosphate pH 8.0, 300 mM NaCl, 1 mM EDTA, 2 mM β-mercaptoethanol, 0.1% polysorbate-20) and directly used for measurements.[3] All compounds were dissolved in DMSO to a concentration of 5 mM and were then diluted in ITC buffer to a final concentration of 500 μM. DNMT2 was diluted to a final concentration of 50 μM with 10% DMSO to match the ligand stocks' DMSO concentration. For the ITC measurements, a MicroCal PEAQ-ITC Automated workstation (Malvern Panalytical) with a 200 μL Hastelloy cell and an injection syringe volume of 40 μL was used. All experiments were performed in triplicates at 25 °C unless otherwise noted. For each measurement, 19 compound injections (2 μL each) with an injection speed of 0.5 μL/s were added to the reaction cell containing DNMT2. The spacing time between sequential injections was 300 s, and the stirring speed was set to 750 rpm with a reference power of 42 μW. As control experiments, ligands were titrated into ITC buffer. Data analysis and fitting were carried out using the MicroCal PEAQ-ITC Analysis Software 1.21 and plotted in GraphPad Prism 8.0.1.

DNMT2 [3] = molecular target: T1, DNMT2; test: MST with DEL hit-derived fluorescent tracers 6-8, DNMT2 varied; conditions: probe 100 nM instead of FTAD, read-out: probe binding affinity (MST, apparent KD)
[4] = system: tRNA modifications (m^5C) in MOLM-13 cells; test: LC-MS/MS tRNA modification analysis of treated cells; assay type: cell-based, human; conditions: 72 h; for m^5C reduction in tRNA: relative to DMSO
[5] = system: MOLM-13, Huh-7 and MDA-MB-231 cells; test: Cell viability assay, pre-cultivation with compound then doxorubicin; assay type: cell-based, human; conditions: for susceptibility to subsequent doxorubicin treatment (synergy): compound 50 μM, then doxorubicin
Experimental: Cell viability assays were conducted with MOLM-13 cells, Huh-7, MDA-MB-231, HEK293, and HCT MTase mutant cell lines (WT, knock-down DNMT2, and knock-down NSUN2) to investigate the DNMT2 inhibiting compounds’ cellular effect. Cells were cultured according to standard protocols: MOLM-13 (RPMI, 10% FBS, 1x Penicillin/Streptomycin, 37 °C, 5% CO2), Huh-7/MDA-MB-231/HEK293 (DMEM, 10% FBS, 1x Penicillin/Streptomycin, 37 °C, 5% CO2) and HCT (McCoys’s 5A Medium, 10% FBS, L-Glutamine, 1x Penicillin/Streptomycin, 37 °C, 5% CO2). Cell viability was assessed using Promega Cell Titer Glo assay kit (MOLM-13, Huh-7, MDA-MB-231, HEK293) or Lonza ViaLight Plus Cell Proliferation and Cytotoxicity BioAssay Kit (HCT cell lines). […] Then, the cell titer reagent was added to each well according to the manufacturer’s protocols, and luminescence was measured using a Tecan Spark 10M plate reader (MOLM-13, Huh-7, MDA-MB-231, HEK293) or Molecular Devices FlexStation (HCT cell lines).

DNMT2 [6] = molecular target: T1, DNMT2; test: ^3H-based methyltransferase enzyme activity assay (^3H-SAM incorporation into tRNA^Asp); assay type: biochemical
Experimental: Enzymatic DNMT2 inhibition assays were carried out in 100 mM Tris-HCl, pH 8.0, 100 mM NH4OAc, 0.1 mM EDTA, 10 mM MgCl2, and 10 mM DTT as described previously.[3]^,[4] First, the tRNA^Asp substrate was heated to 75 °C for 5 min and cooled down to room temperature (RT) before it was added to the reaction mixture to a final concentration of 5 μM. The reaction mixture contained 250 nM DNMT2 and the ligand compounds at variable concentrations (5% DMSO). Enzymatic reactions were started by the addition of 0.9 μM SAM as a mixture of ^3H-SAM (Hartmann Analytics) resp. cold SAM (NEB) to a final activity of 0.025 μCi μL^−1. Enzyme assays were carried out for 30 min at 37 °C. As a negative control served the reaction mixture without DNMT2 and as a positive control the reaction mixture without test compound. After 30 min, aliquots of 8 μL were taken from the reaction mixture and spotted on Whatman glass microfiber filters (GF/C, 25 mm). The RNA was precipitated on the filters with 5% ice-cold TCA for 15 min. […] Scintillation was measured with a scintillation counter (TriCarb Liquid Scintillation Analyzer 4810 TR; measurement time of 1 min). For IC50-value determination, compounds were analyzed at a minimum of six different concentrations in triplicates. IC50-values were calculated, evaluated, and plotted in GraphPad Prism 8.0.1.

[7] = Parallel artificial membrane permeation assay (PAMPA); assay type: in vitro ADME; conditions: 7 h incubation, duplicates
Experimental: To determine the passive permeability of selected DNMT2 ligands, a parallel artificial membrane permeation assay (PAMPA) was performed as described previously.[68] The experiment was performed in duplicates with Sigma-Aldrich MAIPNTR10 donor plates with 5 μL of an artificial membrane (1% w/v L-α-phosphatidylcholine in n-dodecane) per well. After incubation for 7 h, the acceptor solutions were evaluated by LC/MS (HP Agilent 1100 Series). The peak areas in the UV chromatogram (λ = 210 nm) were used to calculate the areas under the curve (AUCs).

NSUN6 = molecular target: T2, NSUN6 (Homo sapiens, UniProt Q8TEA1); test: FP selectivity assay with probe 6; assay type: binding; conditions: enzyme concentrations up to 20 μM
T2 construct: made in house; host or cells: E. coli
T2 sequence (Q8TEA1 1-469): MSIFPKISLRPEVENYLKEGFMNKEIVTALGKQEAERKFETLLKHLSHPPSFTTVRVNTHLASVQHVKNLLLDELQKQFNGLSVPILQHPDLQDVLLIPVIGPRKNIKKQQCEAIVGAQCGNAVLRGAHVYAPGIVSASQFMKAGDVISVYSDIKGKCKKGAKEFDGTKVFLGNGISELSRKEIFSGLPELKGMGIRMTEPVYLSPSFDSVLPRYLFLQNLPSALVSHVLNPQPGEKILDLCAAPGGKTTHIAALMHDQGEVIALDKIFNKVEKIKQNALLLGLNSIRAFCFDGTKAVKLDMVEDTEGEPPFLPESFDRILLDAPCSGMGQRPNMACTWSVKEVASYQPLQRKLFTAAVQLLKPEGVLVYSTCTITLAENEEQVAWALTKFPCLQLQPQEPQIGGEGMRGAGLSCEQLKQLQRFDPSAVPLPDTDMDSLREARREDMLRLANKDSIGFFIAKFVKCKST
Experimental: (§1) Fluorescence polarization (FP) measurements with RNA MTases and small-molecule fluorescent tracers were conducted in black Greiner 96-well half-area plates using a Tecan Spark 10M plate reader as described previously.[44] The reader was equipped with polarization filters coupled to a monochromator setup (λex = 480 nm, λem = 530 nm). For selectivity screening, reaction mixtures contained varying concentrations of recombinant enzyme (DNMT1, DNMT2, DNMT3A/3L, NSUN2, NSUN3, or NSUN6; preparation see below) and 10 nM DEL hit-derived probe 6 in MST buffer. For displacement experiments, 100 μM SAH or 10 μM tRNA^Asp were added from buffered stock solutions to the DNMT2-containing mixtures. All measurements were performed as triplicates. Polarization values (in mP) were calculated from polarization-specific parallel and orthogonal fluorescence intensities according to the Tecan in-built calculation routine. KD-values were calculated and plotted in GraphPad Prism 8.0.1.

DNMT1 = molecular target: T3, DNMT1 (Homo sapiens, UniProt P26358); test: FP selectivity assay with probe 6; assay type: binding; conditions: enzyme concentrations up to 20 μM
T3 construct: purchased ActiveMotif 31404
T3 sequence (P26358 whole entry): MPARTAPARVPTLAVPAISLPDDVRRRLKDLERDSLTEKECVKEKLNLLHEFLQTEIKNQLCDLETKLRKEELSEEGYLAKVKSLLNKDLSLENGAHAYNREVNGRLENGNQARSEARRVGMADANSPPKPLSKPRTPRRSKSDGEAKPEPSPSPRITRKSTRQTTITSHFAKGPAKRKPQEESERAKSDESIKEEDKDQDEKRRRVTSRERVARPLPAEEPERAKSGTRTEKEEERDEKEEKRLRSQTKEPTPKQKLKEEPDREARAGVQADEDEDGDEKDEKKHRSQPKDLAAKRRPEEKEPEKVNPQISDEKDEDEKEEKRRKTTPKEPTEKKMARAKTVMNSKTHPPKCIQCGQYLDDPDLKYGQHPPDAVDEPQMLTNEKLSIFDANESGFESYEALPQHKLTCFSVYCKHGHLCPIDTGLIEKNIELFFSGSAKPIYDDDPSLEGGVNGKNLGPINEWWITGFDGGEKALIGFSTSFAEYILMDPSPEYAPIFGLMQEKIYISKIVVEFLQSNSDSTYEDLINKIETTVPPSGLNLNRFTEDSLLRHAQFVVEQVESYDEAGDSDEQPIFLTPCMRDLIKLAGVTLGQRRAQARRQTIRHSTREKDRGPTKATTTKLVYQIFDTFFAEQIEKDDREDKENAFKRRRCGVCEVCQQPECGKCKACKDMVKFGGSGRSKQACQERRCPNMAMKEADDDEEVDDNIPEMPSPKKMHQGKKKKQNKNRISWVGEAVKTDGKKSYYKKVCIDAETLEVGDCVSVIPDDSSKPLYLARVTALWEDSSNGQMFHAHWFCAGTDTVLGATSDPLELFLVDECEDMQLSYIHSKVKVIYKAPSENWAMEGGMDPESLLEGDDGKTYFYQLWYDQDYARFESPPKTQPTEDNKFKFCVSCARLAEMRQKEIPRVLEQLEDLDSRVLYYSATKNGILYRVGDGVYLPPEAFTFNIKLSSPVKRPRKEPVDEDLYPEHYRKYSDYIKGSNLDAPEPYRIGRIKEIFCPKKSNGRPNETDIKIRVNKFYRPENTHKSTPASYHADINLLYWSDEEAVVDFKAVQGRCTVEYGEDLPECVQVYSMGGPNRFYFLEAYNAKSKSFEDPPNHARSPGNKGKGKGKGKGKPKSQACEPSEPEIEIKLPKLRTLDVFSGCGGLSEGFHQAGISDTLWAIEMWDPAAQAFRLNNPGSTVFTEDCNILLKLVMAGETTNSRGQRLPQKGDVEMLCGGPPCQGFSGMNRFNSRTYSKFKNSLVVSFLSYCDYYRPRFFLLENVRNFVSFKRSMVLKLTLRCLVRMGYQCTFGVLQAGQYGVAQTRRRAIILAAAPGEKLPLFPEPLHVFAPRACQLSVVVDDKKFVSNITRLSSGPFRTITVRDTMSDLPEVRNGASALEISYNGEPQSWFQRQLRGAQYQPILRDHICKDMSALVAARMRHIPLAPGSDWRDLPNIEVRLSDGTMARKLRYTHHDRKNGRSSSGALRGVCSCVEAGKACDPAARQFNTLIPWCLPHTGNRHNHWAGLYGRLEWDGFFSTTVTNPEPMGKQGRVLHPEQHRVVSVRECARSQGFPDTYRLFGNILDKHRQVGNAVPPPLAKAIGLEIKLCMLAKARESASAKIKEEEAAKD
Experimental: as §1

NSUN2 = molecular target: T4, NSUN2 (Homo sapiens, UniProt Q08J23); test: FP selectivity assay with probe 6; assay type: binding; conditions: enzyme concentrations up to 20 μM
T4 construct: made in house; host or cells: E. coli
T4 sequence (Q08J23 whole entry): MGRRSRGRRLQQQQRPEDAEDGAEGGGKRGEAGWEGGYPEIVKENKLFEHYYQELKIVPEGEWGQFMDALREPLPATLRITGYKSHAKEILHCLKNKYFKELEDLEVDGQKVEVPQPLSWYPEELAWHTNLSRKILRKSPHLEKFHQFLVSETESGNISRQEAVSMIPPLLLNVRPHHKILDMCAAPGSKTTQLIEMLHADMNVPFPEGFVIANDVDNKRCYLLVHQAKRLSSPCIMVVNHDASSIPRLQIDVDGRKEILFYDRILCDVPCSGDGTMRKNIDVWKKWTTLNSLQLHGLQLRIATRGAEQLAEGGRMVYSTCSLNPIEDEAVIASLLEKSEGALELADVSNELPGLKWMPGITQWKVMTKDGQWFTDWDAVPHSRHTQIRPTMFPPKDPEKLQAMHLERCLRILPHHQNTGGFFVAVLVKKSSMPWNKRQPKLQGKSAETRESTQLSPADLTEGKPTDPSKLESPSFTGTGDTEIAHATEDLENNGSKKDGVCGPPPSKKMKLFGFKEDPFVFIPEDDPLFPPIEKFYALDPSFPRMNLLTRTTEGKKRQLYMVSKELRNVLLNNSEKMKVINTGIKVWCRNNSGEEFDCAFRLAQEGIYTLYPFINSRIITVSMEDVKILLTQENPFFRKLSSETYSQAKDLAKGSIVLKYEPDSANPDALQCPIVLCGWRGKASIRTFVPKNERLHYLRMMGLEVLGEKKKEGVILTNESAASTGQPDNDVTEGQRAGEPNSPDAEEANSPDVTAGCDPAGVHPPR
Experimental: as §1

NSUN3 = molecular target: T5, NSUN3 (Homo sapiens, UniProt Q9H649); test: FP selectivity assay with probe 6; assay type: binding; conditions: enzyme concentrations up to 20 μM
T5 construct: made in house
T5 sequence (Q9H649 1-340): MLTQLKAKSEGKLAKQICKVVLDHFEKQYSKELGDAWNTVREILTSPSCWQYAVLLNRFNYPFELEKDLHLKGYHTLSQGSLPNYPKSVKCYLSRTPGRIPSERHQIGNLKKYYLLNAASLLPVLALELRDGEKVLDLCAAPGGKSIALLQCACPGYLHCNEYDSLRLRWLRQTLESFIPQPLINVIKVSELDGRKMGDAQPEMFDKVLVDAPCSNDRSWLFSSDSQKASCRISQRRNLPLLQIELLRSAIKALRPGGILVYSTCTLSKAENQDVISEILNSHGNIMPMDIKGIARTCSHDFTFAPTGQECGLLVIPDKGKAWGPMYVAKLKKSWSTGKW
Experimental: as §1

DNMT3A/3L = molecular target: T6, DNMT3A/3L (UniProt Q9CWR8+Q9Y6K1); test: FP selectivity assay with probe 6; assay type: binding, human; conditions: enzyme concentrations up to 20 μM
T6 construct: made in house; host or cells: E. coli
Experimental: as §1

DNMT2 [8] = molecular target: T1, DNMT2; test: Fluorescence polarization (FP) assay with probe 6; assay type: binding
Experimental: as §1

Fnorm (% displ.): FTAD displacement (DNMT2 [1]): 5%
Fnorm (MST screening) (DNMT2 [1]): 861.5
ITC (KD) (DNMT2 [2]): n.b.
SMILES: CCc1ccc(C(=O)NCC2(C(=O)N[C@H](Cc3c[nH]c4ccccc34)C(=O)NCC(N)=O)CC2)cc1 [Compound 30]

Kd (DNMT2 [3]): 700 nM
SMILES: CCc1ccc(C(=O)NCC2(C(=O)N[C@H](CC(=O)NCC(=O)NCCCCCCNC(=O)c3ccc(-c4c5ccc(=[N+](C)C)cc-5oc5cc(N(C)C)ccc45)c(C(=O)O)c3)Cc3c[nH]c4ccccc34)CC2)cc1 [Compound 8]

Fnorm (% displ.): FTAD displacement (DNMT2 [1]): 13%
Fnorm (MST screening) (DNMT2 [1]): 879.4
SMILES: CCc1ccc(C(=O)NCC2(C(=O)NC(CC(=O)NCC(N)=O)Cc3ccc(C#N)cc3)CC2)cc1 (stereo not shown) [Compound 34]
m^5C reduction in tRNA ([4]; MOLM-13, 50 μM): no reduction of m^5C in tRNA
susceptibility to subsequent doxorubicin treatment (synergy) [5]: did not lead to a synergistic reduction in viability

FTAD displacement in the MST assay (DNMT2 [1]; DEL hits, result in words): did not lead to FTAD displacement
Kd (DNMT2 [1]; FTAD probe 100 nM, 2 μM DNMT2, n.b. = no thermophoresis shift observable): 105000 ± 9000 nM
IC50 (DNMT2 [6]): 44400 ± 12900 nM
ITC (KD) (DNMT2 [2]): n.b.
SMILES: CNC(=O)C(NC(=O)C(Cc1c[nH]c2cc(Cl)ccc12)NC(=O)C(CO)NCC(C)Cc1ccc2c(c1)OCO2)C1CCCCC1 (stereo not shown) [Compound 4]

Papp (PAMPA) [7]: ~ 0.30 10^−6 cm/s
Papp at 7 h ([7]; PAMPA): 0.3 ×10⁻⁶ cm/s
SMILES: CCc1ccc(C(=O)NCC2(C(=O)NC(CC(=O)NCC(N)=O)Cc3ccc(Cl)cc3)CC2)cc1 (stereo not shown) [Compound 16]
change in RNA modifications ([4]; MOLM-13, 5 μM): too low to stimulate any significant change in RNA modifications
changes of other (non-m^5C) tRNA modifications ([4]; MOLM-13, 50 μM): only minor other modification changes were observed
m^5C reduction in tRNA ([4]; MOLM-13, 50 μM): ~25%
cellular viability after cultivation with compound alone ([5]; 50 μM, two passages of three days each): no observable reduction in cellular viability
susceptibility to subsequent doxorubicin treatment (synergy) [5]: made the cells more susceptible to the subsequent treatment with doxorubicin

Kd (DNMT2 [3]): 1360 nM
SMILES: Cc1cccc(N(C)c2nc(N[C@H](C(=O)NCCCCCCNC(=O)CCCCC[N+]3=C(/C=C/C=C/C=C4/N(C)c5ccccc5C4(C)C)C(C)(C)c4ccccc43)[C@@H](C)OC(C)(C)C)nc(N3CCN(c4c(C)cccc4C)CC3)n2)c1 [Compound 7]

probe binding to NSUN6 (FP) (NSUN6): does not bind
probe binding to DNMT1 (FP) (DNMT1): does not bind
probe binding to NSUN2 (FP) (NSUN2): does not bind
probe binding to NSUN3 (FP) (NSUN3): does not bind
Kd (DNMT2 [3]): 1650 nM
probe binding to DNMT3A/3L (FP) (DNMT3A/3L): does not bind
fluorescence polarization of probe-DNMT2 complex (DNMT2 [8]; probe 6 with DNMT2 (enzyme-free buffer 5 mP)): 220 mP
SMILES: CCc1ccc(C(=O)NCC2(C(=O)N[C@H](CC(=O)NCC(=O)NCCCCCCNC(=O)c3ccc(-c4c5ccc(=N)c(S(=O)(=O)O)c-5oc5c(S(=O)(=O)O)c(N)ccc45)c(C(=O)O)c3)Cc3ccccc3)CC2)cc1 [Compound 6]

displacement of probe 6 from DNMT2 (FP) (DNMT2 [8]; SAH 100 μM or tRNA^Asp 10 μM added to DNMT2 2 μM): able to displace probe 6
SMILES: Nc1ncnc2c1ncn2[C@@H]1O[C@H](CSCC[C@H](N)C(=O)O)[C@@H](O)[C@H]1O [SAH, S-adenosylhomocysteine, reference compound]
